Test results reported in ChEMBL document CHEMBL5465560, “Selectivity Literature for EUbOPEN Chemogenomic Library” (2024).

Key:
[1] = biological target: T1, Serine/threonine-protein kinase BRSK2 (Homo sapiens) (UniProt Q8IWQ3); assay: Selectivity interaction (KinomeScan (DiscoverX)) EUB0001079a BRSK2; conditions: at 1 µM
T1 sequence (whole entry): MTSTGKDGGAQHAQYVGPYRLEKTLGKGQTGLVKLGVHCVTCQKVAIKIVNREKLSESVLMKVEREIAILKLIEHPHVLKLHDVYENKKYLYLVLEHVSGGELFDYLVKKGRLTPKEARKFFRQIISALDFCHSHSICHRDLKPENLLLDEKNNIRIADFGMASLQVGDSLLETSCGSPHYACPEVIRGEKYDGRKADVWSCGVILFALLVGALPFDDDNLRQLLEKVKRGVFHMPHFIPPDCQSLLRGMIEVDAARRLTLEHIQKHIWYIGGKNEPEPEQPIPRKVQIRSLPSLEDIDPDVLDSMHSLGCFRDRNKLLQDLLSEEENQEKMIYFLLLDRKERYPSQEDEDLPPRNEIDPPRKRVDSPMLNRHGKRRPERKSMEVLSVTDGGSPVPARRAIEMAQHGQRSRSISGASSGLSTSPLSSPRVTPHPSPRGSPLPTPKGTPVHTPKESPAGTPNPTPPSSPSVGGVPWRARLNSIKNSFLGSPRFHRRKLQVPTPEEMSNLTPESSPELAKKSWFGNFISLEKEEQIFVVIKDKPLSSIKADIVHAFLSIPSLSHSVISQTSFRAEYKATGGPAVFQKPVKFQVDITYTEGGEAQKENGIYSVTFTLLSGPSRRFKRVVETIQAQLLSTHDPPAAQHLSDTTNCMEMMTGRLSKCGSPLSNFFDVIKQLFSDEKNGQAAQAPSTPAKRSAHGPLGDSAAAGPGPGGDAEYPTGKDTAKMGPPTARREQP

[2] = biological target: MAP kinase-interacting serine/threonine-protein kinase 1 (Homo sapiens) (UniProt Q9BUB5); assay: Selectivity interaction (KinomeScan (DiscoverX)) EUB0001079a MKNK1; conditions: at 1 µM
[3] = biological target: cGMP-inhibited 3',5'-cyclic phosphodiesterase 3A (Homo sapiens, UniProt Q14432); assay: Selectivity interaction (Phosphodiesterase 3 from human platelets ) EUB0000877a PDE3A; type: cell-based, Platelet
[4] = biological target: Serine/threonine-protein kinase PLK3 (Homo sapiens, UniProt Q9H4B4); conditions: at 10 µM
[5] = biological target: Mitogen-activated protein kinase 14 (Homo sapiens, UniProt Q16539); assay: Selectivity interaction (ActivX KiNativ screen (kinase selectivity in THP-1 cell lysates)) EUB0000639a MAPK14; type: subcellular; conditions: lysate, at 1 µM
[6] = biological target: Mitogen-activated protein kinase kinase kinase 11 (Homo sapiens) (UniProt Q16584); assay: Selectivity interaction (ActivX KiNativ screen (kinase selectivity in THP-1 cell lysates)) EUB0000639a MAP3K11; type: subcellular; conditions: lysate, at 0.04 µM
[7] = biological target: T2, Protein kinase C epsilon type (Homo sapiens) (UniProt Q02156); assay: Selectivity interaction (KinomeScan (DiscoverX)) EUB0000607a PRKCE; conditions: at 10 µM
T2 sequence (whole entry): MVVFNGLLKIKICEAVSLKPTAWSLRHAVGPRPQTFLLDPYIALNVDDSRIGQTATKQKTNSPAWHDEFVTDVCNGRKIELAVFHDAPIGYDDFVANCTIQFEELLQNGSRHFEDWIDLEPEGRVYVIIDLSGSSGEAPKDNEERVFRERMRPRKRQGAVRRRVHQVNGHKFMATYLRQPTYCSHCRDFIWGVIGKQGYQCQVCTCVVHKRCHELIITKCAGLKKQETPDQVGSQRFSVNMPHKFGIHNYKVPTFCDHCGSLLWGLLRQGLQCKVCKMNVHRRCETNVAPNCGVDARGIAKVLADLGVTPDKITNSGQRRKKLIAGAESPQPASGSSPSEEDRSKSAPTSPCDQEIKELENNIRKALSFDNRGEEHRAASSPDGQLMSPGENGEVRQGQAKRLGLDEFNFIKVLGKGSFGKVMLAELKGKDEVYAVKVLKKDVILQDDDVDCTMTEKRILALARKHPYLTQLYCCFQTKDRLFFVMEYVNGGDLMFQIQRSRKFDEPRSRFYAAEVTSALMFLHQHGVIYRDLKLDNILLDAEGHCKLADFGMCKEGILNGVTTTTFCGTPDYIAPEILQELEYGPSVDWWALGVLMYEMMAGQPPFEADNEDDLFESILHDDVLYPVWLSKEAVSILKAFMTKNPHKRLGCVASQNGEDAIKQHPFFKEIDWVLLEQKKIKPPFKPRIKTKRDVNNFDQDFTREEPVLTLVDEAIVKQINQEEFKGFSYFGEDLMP

[8] = biological target: ALK tyrosine kinase receptor (Homo sapiens, UniProt Q9UM73); assay: Selectivity interaction (KinomeScan (DiscoverX)) EUB0000045b ALK
[9] = biological target: Tyrosine-protein kinase Fgr (Homo sapiens) (UniProt P09769); assay: Selectivity interaction (KinomeScan (DiscoverX)) EUB0000045b FGR
Chain of Tyrosine-protein kinase Fgr (Homo sapiens) (P09769 2-529 limits assumed): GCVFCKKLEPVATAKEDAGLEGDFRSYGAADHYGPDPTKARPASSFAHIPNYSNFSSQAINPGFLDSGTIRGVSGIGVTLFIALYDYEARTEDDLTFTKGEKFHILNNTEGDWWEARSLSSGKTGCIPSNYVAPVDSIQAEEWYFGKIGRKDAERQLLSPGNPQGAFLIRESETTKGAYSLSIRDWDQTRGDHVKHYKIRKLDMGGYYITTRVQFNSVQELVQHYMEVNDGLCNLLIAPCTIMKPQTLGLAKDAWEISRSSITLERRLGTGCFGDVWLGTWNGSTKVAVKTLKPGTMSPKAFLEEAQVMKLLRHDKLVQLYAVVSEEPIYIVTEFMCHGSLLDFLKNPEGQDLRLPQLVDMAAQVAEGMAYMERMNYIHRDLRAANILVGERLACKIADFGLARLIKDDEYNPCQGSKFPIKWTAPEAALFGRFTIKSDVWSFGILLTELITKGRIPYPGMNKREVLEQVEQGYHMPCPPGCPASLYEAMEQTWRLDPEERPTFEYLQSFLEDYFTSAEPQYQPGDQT

Chain of ALK tyrosine kinase receptor (Q9UM73 19-1620 limits assumed): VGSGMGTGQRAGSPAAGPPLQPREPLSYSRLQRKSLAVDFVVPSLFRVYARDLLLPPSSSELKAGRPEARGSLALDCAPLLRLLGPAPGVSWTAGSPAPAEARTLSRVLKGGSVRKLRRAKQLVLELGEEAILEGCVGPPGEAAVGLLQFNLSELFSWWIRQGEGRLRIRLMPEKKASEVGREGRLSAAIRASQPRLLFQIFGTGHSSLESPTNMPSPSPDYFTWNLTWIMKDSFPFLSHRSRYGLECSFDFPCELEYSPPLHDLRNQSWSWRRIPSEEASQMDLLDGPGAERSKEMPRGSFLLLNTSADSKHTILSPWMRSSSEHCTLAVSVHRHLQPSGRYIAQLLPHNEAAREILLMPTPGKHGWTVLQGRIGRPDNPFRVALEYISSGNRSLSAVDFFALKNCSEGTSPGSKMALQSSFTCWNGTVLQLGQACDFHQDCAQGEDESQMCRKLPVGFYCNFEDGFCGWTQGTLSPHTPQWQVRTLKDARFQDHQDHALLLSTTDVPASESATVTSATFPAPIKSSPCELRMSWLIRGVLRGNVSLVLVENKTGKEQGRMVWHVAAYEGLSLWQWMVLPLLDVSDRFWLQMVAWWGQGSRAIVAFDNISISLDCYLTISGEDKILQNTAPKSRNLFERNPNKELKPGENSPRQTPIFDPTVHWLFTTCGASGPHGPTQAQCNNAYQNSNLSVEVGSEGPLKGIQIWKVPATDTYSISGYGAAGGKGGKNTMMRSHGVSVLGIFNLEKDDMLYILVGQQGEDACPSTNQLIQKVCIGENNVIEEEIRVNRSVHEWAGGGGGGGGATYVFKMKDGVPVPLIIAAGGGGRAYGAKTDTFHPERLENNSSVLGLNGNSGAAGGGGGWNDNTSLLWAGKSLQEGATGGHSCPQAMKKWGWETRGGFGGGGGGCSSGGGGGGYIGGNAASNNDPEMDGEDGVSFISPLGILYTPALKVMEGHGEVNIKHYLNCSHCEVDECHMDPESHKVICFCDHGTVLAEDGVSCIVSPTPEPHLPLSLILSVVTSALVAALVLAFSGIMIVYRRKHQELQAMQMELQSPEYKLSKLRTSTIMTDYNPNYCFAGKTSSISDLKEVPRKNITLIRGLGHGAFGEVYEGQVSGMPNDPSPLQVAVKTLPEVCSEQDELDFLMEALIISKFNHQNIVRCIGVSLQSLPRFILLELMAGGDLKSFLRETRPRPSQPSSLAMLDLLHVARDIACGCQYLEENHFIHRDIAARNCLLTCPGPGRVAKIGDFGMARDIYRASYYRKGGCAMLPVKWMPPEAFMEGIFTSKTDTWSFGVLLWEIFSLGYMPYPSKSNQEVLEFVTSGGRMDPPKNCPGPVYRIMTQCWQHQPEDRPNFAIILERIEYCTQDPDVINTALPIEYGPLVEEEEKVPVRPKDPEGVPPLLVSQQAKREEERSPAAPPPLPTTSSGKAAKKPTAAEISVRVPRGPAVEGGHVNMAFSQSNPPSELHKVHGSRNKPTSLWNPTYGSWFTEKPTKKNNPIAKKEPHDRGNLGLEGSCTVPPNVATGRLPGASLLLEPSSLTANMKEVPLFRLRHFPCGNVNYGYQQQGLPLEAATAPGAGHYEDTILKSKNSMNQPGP
Chain of MAP kinase-interacting serine/threonine-protein kinase 1 (Homo sapiens) (Q9BUB5 whole entry, looked up): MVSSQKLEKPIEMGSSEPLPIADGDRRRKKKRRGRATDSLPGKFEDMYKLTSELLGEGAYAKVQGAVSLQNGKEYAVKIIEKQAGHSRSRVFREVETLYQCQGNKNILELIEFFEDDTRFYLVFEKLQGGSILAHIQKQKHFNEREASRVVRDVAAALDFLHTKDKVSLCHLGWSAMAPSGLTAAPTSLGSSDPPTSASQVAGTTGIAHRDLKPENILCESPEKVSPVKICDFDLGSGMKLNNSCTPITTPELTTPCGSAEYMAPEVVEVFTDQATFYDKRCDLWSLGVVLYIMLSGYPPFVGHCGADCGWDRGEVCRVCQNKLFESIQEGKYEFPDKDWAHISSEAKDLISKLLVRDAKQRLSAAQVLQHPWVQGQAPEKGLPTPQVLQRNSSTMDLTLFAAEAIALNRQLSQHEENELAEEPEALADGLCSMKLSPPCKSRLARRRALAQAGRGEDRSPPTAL
Chain of Serine/threonine-protein kinase PLK3 (Q9H4B4 whole entry, looked up): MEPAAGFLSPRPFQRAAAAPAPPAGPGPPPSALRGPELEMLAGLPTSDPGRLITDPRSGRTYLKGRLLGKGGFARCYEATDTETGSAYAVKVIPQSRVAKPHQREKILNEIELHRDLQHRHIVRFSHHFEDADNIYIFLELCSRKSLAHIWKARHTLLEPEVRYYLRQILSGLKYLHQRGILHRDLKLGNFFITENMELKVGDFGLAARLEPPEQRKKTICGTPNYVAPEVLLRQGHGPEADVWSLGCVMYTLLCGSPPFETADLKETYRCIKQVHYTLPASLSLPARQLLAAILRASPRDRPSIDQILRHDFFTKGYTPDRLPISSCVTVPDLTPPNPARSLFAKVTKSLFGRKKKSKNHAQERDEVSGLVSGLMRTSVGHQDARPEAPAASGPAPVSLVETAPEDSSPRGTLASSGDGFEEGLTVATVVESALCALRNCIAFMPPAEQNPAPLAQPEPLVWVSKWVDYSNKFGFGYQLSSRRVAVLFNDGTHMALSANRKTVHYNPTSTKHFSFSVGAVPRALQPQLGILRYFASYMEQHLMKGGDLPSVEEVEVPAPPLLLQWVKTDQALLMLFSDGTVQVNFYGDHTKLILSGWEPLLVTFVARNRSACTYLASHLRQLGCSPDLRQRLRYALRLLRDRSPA
Chain of Mitogen-activated protein kinase 14 (Q16539 whole entry): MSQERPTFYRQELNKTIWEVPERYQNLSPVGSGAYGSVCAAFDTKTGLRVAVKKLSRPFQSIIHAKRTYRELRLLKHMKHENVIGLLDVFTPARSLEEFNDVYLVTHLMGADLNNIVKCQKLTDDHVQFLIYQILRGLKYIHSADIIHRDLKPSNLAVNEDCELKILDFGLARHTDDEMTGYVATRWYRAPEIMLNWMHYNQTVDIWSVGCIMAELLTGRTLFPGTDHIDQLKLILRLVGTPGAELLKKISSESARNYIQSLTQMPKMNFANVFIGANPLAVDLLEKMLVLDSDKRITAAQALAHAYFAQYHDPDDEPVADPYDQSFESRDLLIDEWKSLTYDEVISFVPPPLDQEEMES
Chain of Mitogen-activated protein kinase kinase kinase 11 (Homo sapiens) (Q16584 whole entry, looked up): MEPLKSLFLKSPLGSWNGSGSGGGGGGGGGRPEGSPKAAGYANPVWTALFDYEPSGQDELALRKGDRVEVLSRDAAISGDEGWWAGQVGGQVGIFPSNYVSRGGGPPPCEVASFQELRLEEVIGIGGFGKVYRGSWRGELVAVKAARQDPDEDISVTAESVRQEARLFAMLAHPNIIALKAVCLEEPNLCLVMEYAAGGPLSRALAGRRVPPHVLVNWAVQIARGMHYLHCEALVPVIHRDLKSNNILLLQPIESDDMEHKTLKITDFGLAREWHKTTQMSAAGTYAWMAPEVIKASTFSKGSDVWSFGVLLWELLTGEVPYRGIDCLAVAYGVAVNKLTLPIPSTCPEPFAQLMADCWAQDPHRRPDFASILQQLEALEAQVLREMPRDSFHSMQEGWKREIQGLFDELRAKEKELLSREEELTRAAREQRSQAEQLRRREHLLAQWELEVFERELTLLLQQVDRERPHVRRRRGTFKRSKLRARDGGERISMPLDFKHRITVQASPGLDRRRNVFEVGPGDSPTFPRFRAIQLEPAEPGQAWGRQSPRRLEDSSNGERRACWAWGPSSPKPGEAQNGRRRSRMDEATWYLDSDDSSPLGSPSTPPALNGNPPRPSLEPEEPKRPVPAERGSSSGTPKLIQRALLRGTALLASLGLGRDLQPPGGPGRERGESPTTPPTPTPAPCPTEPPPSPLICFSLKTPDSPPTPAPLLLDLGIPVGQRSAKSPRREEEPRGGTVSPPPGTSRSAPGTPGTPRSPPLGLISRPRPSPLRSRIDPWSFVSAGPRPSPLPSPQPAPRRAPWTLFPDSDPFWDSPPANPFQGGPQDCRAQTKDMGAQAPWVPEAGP

For `Nc1cnc(N2CCc3cc(S(=O)(=O)Nc4c(F)cc(Cl)cc4F)cc(N4CCCC4=O)c32)nc1` [TP-020n], the % of control [1] was 80% and the % of control [2] was 98%.

With `CCC(=O)N1CC[C@H](Nc2ncnc3c2CN(c2cnc(OC)c(C(F)(F)F)c2)CC3)C1` [LENIOLISIB] the IC50 [3] was > 30 µM.

`Cc1cc([C@@H](C)Nc2ccccc2C(=O)O)c2nc(N3CCOCC3)cc(=O)n2c1` [AZD-6482] gave a % of control [4] of 89%.

`CC[C@@H]1[C@H](F)C(=O)N[C@@H]1COc1nccc2cc(C(N)=O)c(OC)cc12` [ZIMLOVISERTIB] was tested, and the % of inhibition [5] was -26.4% and the % of inhibition [6] was -8.9%.

Work on `CNC(=O)Nc1ccc(-c2nc(N3CC4CCC(C3)O4)c3cnn(C4CCC5(CC4)OCCO5)c3n2)cc1` yielded a % of control [7] of 100%.

`C=CC(=O)Nc1cc(-n2c(=O)ccc3cnc4ccc(-c5ccc(NS(C)(=O)=O)cc5)cc4c32)ccc1C` was tested, and the % of control ([8]; at 1 µM) was 100%, the % of control ([8]; at 10 µM) was 100% and the % of control ([9]; at 1 µM) was 72%. The % of control ([9]; at 10 µM) was 79%.
